Experimental data taken from US12426598B2, “Method for controlling herbicide-resistant weed” (SUMITOMO CHEMICAL COMPANY, LIMITED, priority 2019, dated 2025).

Columns and labels:
[1] = test system: PPO inhibitor-resistant weeds; assay: Pot tests with crops in greenhouse (Examples 73 to 2304)
Procedure: On the same day, compound X is applied to the surface of soil so that the application rate of the compound X is 10, 20, 40, or 80 g/ha and the spray liquid amount is 200 L/ha. The plastic pot is then placed in a greenhouse, and at 7 days after the application, soybeans are seeded, and further at 14 days after seeding the soybeans, the effect on the weeds and crop injuries on the soybeans are investigated.
On the same day, compound X is applied to the surface of soil so that the application rate of the compound X is 10, 20, 40, or 80 g/ha and the spray liquid amount is 200 L/ha. The soybeans are then cultivated in a greenhouse, and at 21 days after seeding, the effect on the weeds and crop injuries on the soybeans are investigated.
The soybeans are then cultivated in a greenhouse, and at 21 days after seeding, compound X is applied to the stem and leaf so that the application rate of the compound X is 10, 20, 40, or 80 g/ha and the spray liquid amount is 200 L/ha. Further, the soybeans are cultivated in the greenhouse, and at 14 days after the application of compound X, the effect on the weeds and crop injuries on the soybeans are investigated.

[2] = test system: waterhemp containing a Gly210 deficiency in PPO2; assay: Foliar spray pot test in greenhouse, herbicidal effect; format: in vivo, Amaranthus tuberculatus; conditions: 200 L/ha, rating 0 to 100
[3] = test system: palmer amaranth containing a Gly399Ala mutation in PPO2; assay: as above; format: in vivo, Amaranthus palmeri; conditions: 200 L/ha, rating 0 to 100
[4] = Examples 289 to 432: as Examples 1 to 144, XtendiMax added at 1 pint/acre (560 g/ha)
[5] = Examples 433 to 576: as Examples 1 to 144, RoundupPowerMax 32 fluid ounce/acre and XtendiMax 1 pint/acre added
[6] = Example 2305: plant height 10 cm, sprayed 5 g/ha, 14 days after
[7] = Example 2306: plant height 30 cm, sprayed 20 g/ha, 7 days after

SMILES | effect on the weeds [1, 4] | effect on the weeds [1, 5] | Herbicidal effect [2, 6] | Herbicidal effect [2, 7] | Herbicidal effect [3, 6] | Herbicidal effect [3, 7] | effect on the weeds ([1]; Examples 73 to 144: as Examples 1 to 72, compound Y instead of compound X)
CCOC(=O)COc1ccccc1Oc1nc(-n2c(=O)cc(C(F)(F)F)n(C)c2=O)c(F)cc1Cl [compound X] | effective control effect | effective control effect | 60 | 45 | 100 | 97 | –
CCOC(=O)COc1ncccc1Oc1nc(-n2c(=O)cc(C(F)(F)F)n(C)c2=O)c(F)cc1Cl [compound Y] | effective control effect | effective control effect | – | – | – | – | effective control effect
